From US8222487B2, “Application of ERF genes from Bupleurum kaoi” (National Tsing Hua University, priority 2009, dated 2012)

Key:
[1] = test system: B. kaoi adventitious roots; test: cDNA microarray of MeJA-responsive genes in adventitious roots; type: cell-based, Bupleurum kaoi; conditions: 500 μM MeJA; microarray analysis
Experimental: Adventitious root cultures were induced from the roots of germ-free seedlings of B. kaoi and were subcultured every 6 weeks by adding 0.2 g roots to a 125 ml flask containing 50 ml of B5 liquid medium supplemented with 2 mg 1^−1 NAA. Cultures were shaken using a rotary shaker at 100 rpm at 25° C. in the dark. To quantify the effect of MeJA on saikosaponin level, adventitious roots were treated with 500 and 1000 μM MeJA 2 weeks after subculture. Total saikosaponin was measured 2 weeks after MeJA treatment. To monitor expression of MeJA-responsive genes, the nutrient medium was refreshed 4 weeks after subculture and MeJA (500 μM) was applied 2 weeks after refreshment. Roots were harvested at 13 time points (5 min; 1, 2, 8, 24 hours; 2, 4, 6, 8 days; 2, 3, 4, 5 weeks) after the addition of the MeJA. […]
The DNA microarray data were imported into GeneSpring 7.2 (Silicon Genetics) for further analyses. […] The coefficient of variation was calculated by dividing the standard deviation by the mean. Net intensities of both channels were calculated by subtraction of the median fluorescent intensity of the background from the mean fluorescent intensity of each feature. […] Fold change was calculated for each gene by dividing the average intensity of MeJA-treated samples by the average intensity of the corresponding control samples. […]

[2] = test system: cell suspension cultures of Medicago truncatula; conditions: 5 μM MeJA for 2 h; cited from earlier work

## CC/C=C\CC1C(=O)CCC1CC(=O)OC (centres unmarked) [MeJA, Methyl jasmonate]
[1]
  Two BkP450 genes (AM421810, AM421812) increase: 2 fold
[2]
  PAL transcripts induction: 3 fold
